The NIST ThermoML archive (doi:10.1021/je060271a)

Conditions: 283.15 K, Liquid, Vibrating tube method

CCCCCCCC(=O)OCC(COC(=O)CCCCCCC)(COC(=O)CCCCCCC)COC(=O)CCCCCCC [pentaerythritol tetraoctanoate]
Conditions	mass density [kg/m3]
7440.8 kPa	974.4
7459 kPa	974.5
7477.1 kPa	974.5
7498.5 kPa	974.5
7516.3 kPa	974.6
7534.1 kPa	974.5
7555.6 kPa	974.6
7574.3 kPa	974.6
7592.6 kPa	974.6
7614.9 kPa	974.6
7633.7 kPa	974.6
7652.5 kPa	974.6
7671.5 kPa	974.7
7693.9 kPa	974.6
7713.6 kPa	974.7
7732.4 kPa	974.7
7751.9 kPa	974.7
7774.9 kPa	974.8
7794.2 kPa	974.7
7813.7 kPa	974.8
7837.5 kPa	974.7
7857 kPa	974.8
7877.2 kPa	974.8
7897.6 kPa	974.8
7917.4 kPa	974.8
7942.4 kPa	974.8
7963.7 kPa	974.8
7984.1 kPa	974.8
8005.2 kPa	974.9
8025.4 kPa	974.9
8049.7 kPa	974.8
8070.2 kPa	974.9
8092.5 kPa	975.1
8117.1 kPa	974.9
8138 kPa	974.8
8159.8 kPa	974.9
8184.3 kPa	974.9
8205.1 kPa	975
8227.9 kPa	974.9
8252.3 kPa	975
8274.2 kPa	975
8300.2 kPa	975.1
8322.1 kPa	975.1
8344.2 kPa	975.1
8367 kPa	975.1
8393.5 kPa	975
8415.8 kPa	975.1
8438.6 kPa	975
8465.5 kPa	975.1
8487.9 kPa	975.1
8516.4 kPa	975.2
8539.8 kPa	975.1
8563.6 kPa	975.1
8586.9 kPa	975.2
8615 kPa	975.2
8638.6 kPa	975.2
8666.6 kPa	975.3
8690.7 kPa	975.3
8714.3 kPa	975.1
8744.3 kPa	975.2
8768.6 kPa	975.3
8793.6 kPa	975.4
8822.8 kPa	975.4
8847.1 kPa	975.3
8872.8 kPa	975.3
8898.8 kPa	975.4
8929.2 kPa	975.3
8953.6 kPa	975.4
8985 kPa	975.4
9011.4 kPa	975.4
9037.2 kPa	975.4
9063.1 kPa	975.5
9095 kPa	975.3
9120.9 kPa	975.4
9152 kPa	975.5
9179.6 kPa	975.5
9206.9 kPa	975.5
9238.7 kPa	975.5
9266.5 kPa	975.5
9295.1 kPa	975.6
9323 kPa	975.5
9356.5 kPa	975.6
9383.9 kPa	975.2
9416.6 kPa	975.6
9445.6 kPa	975.6
9474.8 kPa	975.6
9509.1 kPa	975.6
9537.9 kPa	975.7
9567.4 kPa	975.8
9602.7 kPa	975.7
9633 kPa	975.8
9662.7 kPa	975.7
9692.8 kPa	975.8
9730.2 kPa	975.8
9760.9 kPa	975.8
9797 kPa	975.9
9827.4 kPa	975.9
9859.1 kPa	975.8
9890.1 kPa	975.9
9927.8 kPa	975.9
9959.5 kPa	976
9991.2 kPa	976
10030 kPa	975.8
10063 kPa	975.9
10103 kPa	976
10135 kPa	975.9
10169 kPa	976
10203 kPa	976.1
10243 kPa	976.1
10276 kPa	976
10311 kPa	976.1
10352 kPa	976
10387 kPa	976.1
10421 kPa	976.1
10464 kPa	976.2
10500 kPa	976.2
10539 kPa	976.3
10575 kPa	976.4
10612 kPa	976.3
10655 kPa	976.1
10692 kPa	976.4
10736 kPa	976.3
10773 kPa	976.4
10813 kPa	976.3
10851 kPa	976.4
10890 kPa	976.5
10936 kPa	976.5
10974 kPa	976.5
11022 kPa	976.5
11063 kPa	976.4
11103 kPa	976.5
11143 kPa	976.6
11183 kPa	976.6
11232 kPa	976.8
11272 kPa	976.6
11322 kPa	976.6
11363 kPa	976.6
11404 kPa	976.6
11456 kPa	976.9
11499 kPa	976.7
11542 kPa	976.8
11594 kPa	976.8
11639 kPa	976.8
11683 kPa	976.8
11736 kPa	976.9
11780 kPa	976.8
11826 kPa	977
11881 kPa	976.9
11928 kPa	976.9
11974 kPa	977.1
12022 kPa	977
12078 kPa	977
12126 kPa	977.1
12174 kPa	977.1
12234 kPa	977.1
12283 kPa	977.2
12334 kPa	977.2
12394 kPa	977.1
12445 kPa	977.3
12496 kPa	977.2
12548 kPa	977.3
12611 kPa	977.3
12662 kPa	977.3
12708 kPa	977.5
12785 kPa	977.5
12834 kPa	977.5
12903 kPa	977.4
12955 kPa	977.6
12988 kPa	977.5
13021 kPa	977.6
13054 kPa	977.6
13095 kPa	977.6
13128 kPa	977.6
13170 kPa	977.5
13204 kPa	977.8
13238 kPa	977.7
13272 kPa	977.7
13314 kPa	977.8
13350 kPa	977.7
13385 kPa	977.8
13427 kPa	977.8
13463 kPa	977.8
13506 kPa	977.9
13542 kPa	977.9
13579 kPa	977.9
13615 kPa	978
13660 kPa	977.9
13697 kPa	977.8
13734 kPa	977.9
13779 kPa	978
13816 kPa	978.1
13863 kPa	978
13902 kPa	978
13942 kPa	978.1
13982 kPa	978.1
14031 kPa	978.1
14074 kPa	978.2
14118 kPa	978.2
14166 kPa	978.1
14190 kPa	978.3
14210 kPa	978.2
14230 kPa	978.3
14254 kPa	978.2
14274 kPa	978.3
14298 kPa	978.3
14319 kPa	978.3
14340 kPa	978.4
14360 kPa	978.3
14384 kPa	978.3
14405 kPa	978.4
14426 kPa	978.4
14446 kPa	978.4
14472 kPa	978.2
14492 kPa	978.3
14514 kPa	978.3
14539 kPa	978.5
14560 kPa	978.4
14582 kPa	978.4
14608 kPa	978.5
14625 kPa	978.5
14650 kPa	978.4
14671 kPa	978.4
14693 kPa	978.6
14718 kPa	978.4
14740 kPa	978.5
14765 kPa	978.6
14787 kPa	978.6
14809 kPa	978.6
14835 kPa	978.4
14857 kPa	978.6
14879 kPa	978.7
14906 kPa	978.6
14928 kPa	978.7
14950 kPa	978.5
14976 kPa	978.6
14999 kPa	978.6
15022 kPa	978.7
15044 kPa	978.7
15071 kPa	978.7
15093 kPa	978.7
15116 kPa	978.5
15143 kPa	978.8
15166 kPa	978.7
15189 kPa	978.8
15217 kPa	978.7
15240 kPa	978.8
15263 kPa	978.6
15291 kPa	978.9
15314 kPa	978.8
15338 kPa	978.9
15366 kPa	978.7
15389 kPa	978.8
15417 kPa	978.9
15441 kPa	978.9
15465 kPa	978.9
15488 kPa	978.9
15517 kPa	979
15542 kPa	978.9
15566 kPa	978.9
15595 kPa	978.9
15620 kPa	978.9
15644 kPa	979
15673 kPa	979
15698 kPa	979
15722 kPa	979
15752 kPa	979.1
15776 kPa	979.1
15801 kPa	979.2
15831 kPa	979
15856 kPa	979.1
15882 kPa	979.1
15912 kPa	979.2
15938 kPa	979.2
15963 kPa	979.1
15994 kPa	979.2
16019 kPa	979.2
16045 kPa	979.1
16076 kPa	979.2
16102 kPa	979.2
16128 kPa	979.4
16159 kPa	979.2
16185 kPa	979.2
16212 kPa	979.2
16238 kPa	979.4
16270 kPa	979.3
16296 kPa	979.4
16328 kPa	979.4
16355 kPa	979.5
16382 kPa	979.5
16409 kPa	979.4
16441 kPa	979.5
16468 kPa	979.5
16501 kPa	979.4
16528 kPa	979.5
16556 kPa	979.4
16591 kPa	979.4
